{"source": "patent US8871789B2", "about": "“Method of preventing or treating viral infection” (The United States of America, as represented by the …, priority 2010, dated 2014)", "key": {"JMJD2E": {"biological_target": "T1, JMJD2E (Homo sapiens, UniProt B2RXH2)", "T1 sequence (B2RXH2 1-506)": "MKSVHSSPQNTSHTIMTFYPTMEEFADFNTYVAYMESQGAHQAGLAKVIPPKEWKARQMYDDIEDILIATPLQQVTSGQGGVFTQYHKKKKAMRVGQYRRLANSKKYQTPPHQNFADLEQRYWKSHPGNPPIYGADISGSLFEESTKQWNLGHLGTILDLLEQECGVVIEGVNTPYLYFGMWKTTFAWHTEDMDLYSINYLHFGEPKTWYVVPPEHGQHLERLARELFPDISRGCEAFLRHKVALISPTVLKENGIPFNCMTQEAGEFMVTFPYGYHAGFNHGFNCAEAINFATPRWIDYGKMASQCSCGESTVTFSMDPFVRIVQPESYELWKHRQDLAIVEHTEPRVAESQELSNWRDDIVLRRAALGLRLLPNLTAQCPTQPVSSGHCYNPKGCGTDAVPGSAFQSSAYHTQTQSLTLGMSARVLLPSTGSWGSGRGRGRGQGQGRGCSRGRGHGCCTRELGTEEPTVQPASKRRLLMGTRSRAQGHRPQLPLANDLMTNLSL", "assay": "AlphaLISA assay, JMJD2E histone demethylase inhibition", "assay_type": "biochemical", "conditions": "Table 2; JMJD2E; AlphaLISA, in triplicate; read-out: IC50"}, "HSV-1": {"tested_on": "HSV-1", "assay": "Plaque assay of Vero cells infected with HSV-1", "assay_type": "cell-based", "parameters": "# Plaques: dose or concentration left out as unconfirmed", "conditions": "for # Plaques: 12 hours infection, then ACV or ML324 for 48 hours", "experimental": "ML324 was ˜75-fold more efficient than DMOG. Additionally, ML324 (i) reduced viral yields in a dose-dependent manner (˜5 logs at 50 mM, FIG. 14); (ii) blocked viral IE gene transcription and reduced viral yields when cells were infected at high multiplicity of infection (MOI; FIGS. 15 and 16); and (iii) suppressed IE gene transcription, even when added at times after infection (>50% reduction at 2 hours after infection; FIG. 17). As further evidence for the efficacy of ML324, cells were infected with HSV to allow for a productive cycle of infection, followed by treatment with DMSO, ACV, or ML324."}, "[1]": {"conditions": "treatment after productive cycle of infection"}}}
{"smiles": "CN(C)CCCNC(=O)c1ccc(-c2cc(O)c3ncccc3c2)cc1", "note": "[Compound 4, N-(3-(dimethylamino)propyl)-4-(8-hydroxyquinolin-6-yl)benzamide]", "values": [{"measurement": "IC50", "setting": "JMJD2E", "value": 920, "unit": "nM"}, {"measurement": "# Plaques", "setting": "HSV-1; MOI .001", "value": 0}, {"measurement": "# Plaques", "setting": "HSV-1; MOI .01", "value": 2}, {"measurement": "formation of HSV plaques", "setting": "HSV-1; [1]", "value": "markedly suppressed"}, {"measurement": "spread of infection to adjacent cells (UL29 immunofluorescence)", "setting": "HSV-1; [1]", "value": "markedly suppressed"}]}
